Results on 18 molecules are retold here after US11155551B2, “Nicotinic acetylcholine receptor silent agonists” (University of Florida Research Foundation, Inc., priority 2015, dated 2021).

In this experiment the target is T1, human α7 nAChR (Homo sapiens, UniProt P36544).
T1 construct: expressed in transfected cells; host or cells: Xenopus oocytes
The experiment is described as follows: Two-electrode voltage clamping of human α7 nAChR expressed in Xenopus oocytes (net-charge / peak current relative to 60 μM ACh). Type of experiment: cell-based. The settings on record: for Potentiated response: 30 μM test compound + 10 μM PNU-120596 co-application; for Potentiated response / Relative response: relative to 60 μM ACh control, mean ± SEM, N ≥ 4; for Relative response: net-charge response to 30 μM test compound alone; for functional classification at α7 nAChR: 30 μM alone and with 10 μM PNU-120596, partial agonist = net charge > 1/10th ACh control; for PNU Response: 30 μM compound + 10 μM PNU-120596, relative to 60 μM ACh controls (n ≥ 4); for Net Charge / Peak current: 30 μM compound alone, relative to 60 μM ACh controls (n ≥ 4); for Ratio (peak current to net charge): 30 μM, normalized peak current / normalized net charge; for Estimated Rank efficacy / Estimated Rank potency: rank among six partial agonists; for Estimated Rank potency: from peak-current-to-net-charge ratio; for PAM-dependent currents relative to ACh: co-application with PNU-120596, meta-substituted series. How it is done: Electrophysiology: The panel of compounds synthesized was assayed using human α7 nAChR expressed in Xenopus oocytes and two-electrode voltage clamping. The partial agonism activity was evaluated, quantified as net-charge for 30 μM applications of compounds, measured relative to the control response to applications of 60 μM ACh. The induction of PAM-sensitive desensitization was detected as the net-charge responses when compounds were co-applied with the PAM PNU-120596 (30 μM compound+10 μM PNU-120596), measured relative to responses to 60 μM ACh applied alone. […] It is a unique property of α7 orthosteric agonist-induced currents that they vary systematically in the relationship between peak current and net charge as a function of the effective concentration applied (Papke & Papke (2002) Br. J. Pharm. 137: 49-61; Papke & Thinschmidt (1998) Neurosci. Let. 256: 163-166). This was due to the concentration-dependent desensitization of the receptors, which is likely to be associated with high levels of agonist binding site occupancy (Williams et al., (2011) J. Gen. Physiol. 137: 369-384) and is observed even when agonists are rapidly applied to small cells (Williams et al., (2012) Mol. Pharmacol. 82: 746-759) or acutely dissociated neurons (Uteshev et al., (2002) Brain Res. 948: 33-46). The control ACh concentration used for these experiments is roughly the EC80 for the net-charge responses.
By normalizing both the peak currents and net-charge measurements of the drug responses at the probe concentration of 30 μM (FIG. 3B) to those of the ACh control, the relationship between the probe concentration and the EC for each of the drugs was estimated (Papke, R. L. (2005) Life Sci.). At a concentration where the ratio of the normalized measures equaled one, the drug would be at the same effective concentration as 60 μM ACh.
Electrophysiology: New compounds were assayed for activity with the α7 nAChR expressed in Xenopus oocytes using two-electrode voltage clamping as previously described in Papke et al., (2014) J. Pharmacol. Experimental Therap. 350: 665-680, incorporated herein by reference in its entirety, and compared to responses evoked by 60 μM Ach (FIGS. 5 and 6). The compound set was assayed at a concentration of 30 μM to provide a standard comparison benchmark.
Based on earlier experience this concentration is high enough to provide an observable response and low enough to avoid possible complications such as channel block. The net-charge response for each compound application is reported relative to those for ACh control applications. Data were expressed as the mean ±S.E.M. from at least four oocytes for each experiment and were plotted by Kaleidagraph (Abelbeck Software, Reading, Pa.).

T1 sequence (P36544 23-502): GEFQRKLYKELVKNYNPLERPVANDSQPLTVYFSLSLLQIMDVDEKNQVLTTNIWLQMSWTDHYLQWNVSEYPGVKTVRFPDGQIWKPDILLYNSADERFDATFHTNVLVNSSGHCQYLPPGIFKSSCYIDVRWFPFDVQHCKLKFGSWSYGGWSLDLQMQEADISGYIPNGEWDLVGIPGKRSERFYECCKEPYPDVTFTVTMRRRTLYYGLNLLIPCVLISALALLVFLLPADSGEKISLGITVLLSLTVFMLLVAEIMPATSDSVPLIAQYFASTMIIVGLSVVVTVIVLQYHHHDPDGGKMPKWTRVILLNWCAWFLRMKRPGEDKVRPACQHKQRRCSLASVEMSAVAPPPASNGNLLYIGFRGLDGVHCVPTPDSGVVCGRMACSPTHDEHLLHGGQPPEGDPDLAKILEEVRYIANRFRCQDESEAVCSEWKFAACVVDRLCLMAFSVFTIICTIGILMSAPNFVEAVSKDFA

`CCN1CCN(c2cccc(Cl)c2)CC1` [Compound 1f, 1-(3-chlorophenyl)-4-ethylpiperazine]: the Potentiated response is on record as 0.1 ± 0.1 and the Relative response was 0.009 ± 0.008.

On to `CCN1CCN(c2cccc(Br)c2)CC1` [Compound 1p, 1-(3-bromophenyl)-4-ethylpiperazine], for which the “functional classification at α7 nAChR” value is “modest silent agonism”, the Potentiated response is given as 6.9±2.4 and the Relative response amounted to 0.000 ± 0.003. Besides, where the note is “PAM co-application response”, the “response relative to diEPP” value was “approximately 5 fold” and the “response relative to its corresponding quaternary salt 2p” value came to 0.69 fold.

With `CC[N+]1(CC)CCN(c2ccc(C#N)cc2)CC1.[I-]` [Compound 2b, 4-(4-cyanophenyl)-1,1-diethylpiperazin-1-ium iodide], the “functional classification at α7 nAChR” value is “partial agonists”, the “PNU Response” value is listed as 68 ± 25, the “Net Charge” value was determined as 0.23 ± 0.02 and the Peak current is given as 0.10 ± 0.01. The Potentiated response is on record as 68.0 ± 25.4, the “Ratio (peak current to net charge)” value came out at 0.43, the Relative response stood at 0.234 ± 0.024 and the “Estimated Rank efficacy” value is given as 3. Moreover, the “Estimated Rank potency” value is reported as 6.

On to `CC[N+]1(CC)CCN(c2ccc(OC)cc2)CC1.[I-]` [Compound 2c, 1,1-diethyl-4-(4-methoxyphenyl)piperazin-1-ium iodide], for which the “functional classification at α7 nAChR” value is “candidate silent agonists”, the Potentiated response was found to be 11.6 ± 0.3 and the Relative response worked out at 0.063 ± 0.014.

Take `CC[N+]1(CC)CCN(c2ccc(Cl)cc2)CC1.[I-]` [Compound 2e, 4-(4-chlorophenyl)-1,1-diethylpiperazin-1-ium iodide]: the “functional classification at α7 nAChR” value is recorded as “partial agonists”, the “PNU Response” value was determined as 18 ± 6, the “Net Charge” value was found to be 0.23 ± 0.05 and the Peak current amounted to 0.17 ± 0.02. Besides, the Potentiated response was determined as 18.3 ± 6.2, the “Ratio (peak current to net charge)” value was 0.71, the Relative response came to 0.234 ± 0.048 and the “Estimated Rank efficacy” value is recorded as 5. Moreover, the “Estimated Rank potency” value was 1.

`CC[N+]1(CC)CCN(c2cccc(Cl)c2)CC1.[I-]` [Compound 2f, 4-(3-chlorophenyl)-1,1-diethylpiperazin-1-ium iodide]: the “functional classification at α7 nAChR” value is “candidate silent agonists”, the Potentiated response turned out to be 4.2 ± 1.0, the “PAM-dependent currents relative to ACh” value was found to be 4.23 fold and the Relative response is reported as 0.020 ± 0.003.

`CC[N+]1(CC)CCN(c2ccccc2C)CC1.[I-]` [Compound 2h, 1,1-diethyl-4-o-tolylpiperazin-1-ium iodide]: the “functional classification at α7 nAChR” value is given as “partial agonists”, the “PNU Response” value is on record as 16 ± 2, the “Net Charge” value stood at 0.32 ± 0.07 and the Peak current is 0.15 ± 0.02. The Potentiated response came to 16.4 ± 2.4, the “Ratio (peak current to net charge)” value is given as 0.46, the Relative response is given as 0.319 ± 0.066 and the “Estimated Rank efficacy” value is 1. In addition, the “Estimated Rank potency” value is reported as 5.

With `CC[N+]1(CC)CCN(c2cccc(C#N)c2)CC1.[I-]` [Compound 2i, 4-(3-cyanophenyl)-1,1-diethylpiperazin-1-ium iodide], the “functional classification at α7 nAChR” value was “no significant activity as either partial agonists or as silent agonists”, the Potentiated response was found to be 1.5 ± 0.7 and the Relative response is given as 0.022 ± 0.024. The “PAM-dependent response compared to the parent diEPP” value (co-application with PNU-120596) is “equivalent”.

With `CC[N+]1(CC)CCN(c2ccccc2Cl)CC1.[I-]` [Compound 2j, 4-(2-chlorophenyl)-1,1-diethylpiperazin-1-ium iodide], the “functional classification at α7 nAChR” value was “partial agonists”, the “PNU Response” value is on record as 37 ± 6, the “Net Charge” value was 0.37 ± 0.05 and the Peak current was determined as 0.23 ± 0.03. The Potentiated response is 36.6 ± 6.1, the “Ratio (peak current to net charge)” value amounted to 0.63, the Relative response worked out at 0.367 ± 0.054 and the “Estimated Rank efficacy” value is 2. Moreover, the “Estimated Rank potency” value is listed as 4.

Regarding `CC[N+]1(CC)CCN(c2cccc(O)c2)CC1.[I-]` [Compound 2k, 1,1-diethyl-4-(3-hydroxyphenyl)piperazin-1-ium iodide], the “functional classification at α7 nAChR” value is recorded as “partial agonists”, the “PNU Response” value is listed as 31 ± 5, the “Net Charge” value worked out at 0.28 ± 0.02 and the Peak current is given as 0.19 ± 0.02. The Potentiated response came to 31.4 ± 5.1, the “Ratio (peak current to net charge)” value was 0.67, the Relative response stood at 0.283 ± 0.013 and the “Estimated Rank efficacy” value was 4. Further, the “Estimated Rank potency” value was 3.

In the case of `CC[N+]1(CC)CCN(c2ccc(OC)cc2OC)CC1.[I-]` [Compound 2l, 4-(2,4-dimethoxyphenyl)-1,1-diethylpiperazin-1-ium iodide], the “functional classification at α7 nAChR” value is reported as “not a partial agonist”, the Potentiated response was determined as 1.1 ± 0.1 and the Relative response is 0.014 ± 0.009.

For `CC[N+]1(CC)CCN(c2ccc3ccccc3c2)CC1.[I-]` [Compound 2m, 1,1-diethyl-4-(naphthalen-2-yl)piperazin-1-ium iodide], the “functional classification at α7 nAChR” value is listed as “partial agonist”, the “PNU Response” value is 16 ± 2, the “Net Charge” value is recorded as 0.14 ± 0.02 and the Peak current is on record as 0.10 ± 0.02. Moreover, the Potentiated response was determined as 15.9 ± 2.3, the “Ratio (peak current to net charge)” value is given as 0.71, the Relative response is 0.143 ± 0.018 and the “Estimated Rank efficacy” value is 6. The “Estimated Rank potency” value was 1.

On to `CC[N+]1(CC)CCN(c2cccc(C(F)(F)F)c2)CC1.[I-]` [Compound 2o, 1,1-diethyl-4-(3-(trifluoromethyl)phenyl)piperazin-1-ium iodide], for which the “functional classification at α7 nAChR” value is “candidate silent agonists”, the Potentiated response was 3.1 ± 2.1 and the Relative response was determined as 0.000 ± 0.002.

As to `CC[N+]1(CC)CCN(c2ccc(Br)cc2)CC1.[I-]` [Compound 2q, 4-(4-bromophenyl)-1,1-diethylpiperazin-1-ium iodide], the Potentiated response came to 12.3 ± 3.5 and the Relative response is given as 0.270 ± 0.017.

For the molecule `CC[N+]1(CC)CCN(c2ccc(F)cc2)CC1.[I-]` [Compound 2r, 1,1-diethyl-4-(4-fluorophenyl)piperazin-1-ium iodide], the “functional classification at α7 nAChR” value is recorded as “candidate silent agonists”, the Potentiated response worked out at 22.9 ± 5.8 and the Relative response was 0.010 ± 0.002.

As for `CC[N+]1(CC)CCN(c2cccc(F)c2)CC1.[I-]` [Compound 2s, 1,1-diethyl-4-(3-fluorophenyl)piperazin-1-ium iodide], the “functional classification at α7 nAChR” value is “no significant activity as either partial agonists or as silent agonists”, the Potentiated response came to 0.2 ± 0.1, the “PAM-dependent currents relative to ACh” value is 0.2 fold and the Relative response is 0.061 ± 0.089.

As for `CC[N+]1(CC)CCN(c2ccc(C(N)=O)cc2)CC1.[I-]` [Compound 2t, 4-(4-carbamoylphenyl)-1,1-diethylpiperazin-1-ium iodide], the “functional classification at α7 nAChR” value was “candidate silent agonists”, the Potentiated response is given as 43.9 ± 8.5 and the Relative response is 0.065 ± 0.009.

As for `CC[N+]1(CC)CCN(c2cccc(C(N)=O)c2)CC1.[I-]` [Compound 2u, 4-(3-carbamoylphenyl)-1,1-diethylpiperazin-1-ium iodide], the “functional classification at α7 nAChR” value is recorded as “candidate silent agonists”, the Potentiated response is listed as 50.7 ± 8.5 and the Relative response stood at 0.056 ± 0.022.
